Experimental data as given in patent EP4603506A1, “NOVEL GLP-1 RECEPTOR ANTAGONIST, AND PHARMACEUTICAL COMPOSITION FOR PREVENTING OR TREATING CONGENITAL […] OR HYPOGLYCEMIA, COMPRISING SAME” (Hanmi Pharm. Co., Ltd., priority 2022, dated 2024).
Starred links: 1 amine or outer side, 2 acyl side, 3 side chain; linkers in the order of their positions; H or OH if unused. Residues, ends and D or L forms follow the SMILES beside them. Groups on a side chain read outwards from the residue. *: point of attachment. C18 diacid = O=C(O)CCCCCCCCCCCCCCCCC(=O)*; γGlu = O=C(O)[C@H](CCC(=O)[*:2])N[*:1]; AEEA = NCCOCCOCC(=O)O

Assays:
C57BL/6N mice = assay: Oral glucose tolerance test (OGTT), blood glucose levels; assay type: in vivo; conditions: 2 g/kg oral glucose after 4-hour fasting, 3690 and 7380 µg/kg subcutaneous, 24 hours before OGTT, versus vehicle control, FIG. 1
Procedure: The test was conducted on 8-week-old male mice, and during the study, five mice were housed in each group and had free access to drinking water. The lights were turned off from 6 PM to 6 AM.
The administration of the drugs was completed 24 hours before the oral glucose tolerance test (OGTT) for Groups 1, 3, and 4, and 30 minutes before for Group 2. Particularly, the dose was expressed as a value based on the value obtained by subtracting the mass of the fatty acid moieties from the total mass of the acylated GLP-1 receptor antagonist analog conjugate, that is, the value obtained by summing the mass of each of only polypeptide moieties.
As for the OGTT, all the groups were orally administered 2 g/kg glucose once after 4-hour fasting, and then blood samples were consecutively collected from the tail vein at specific time intervals (0, 15, 30, 60, and 120 minutes) to measure blood glucose levels by a OneTouch blood glucose meter (OneTouch Select®, LifeScan, USA). Statistical analysis was performed using an unpaired t-test to compare between the control group and the test groups (# ~ ###p < 0.05 ~ 0.001).

[1] = tested on: PBH rat model (VSG, SD rats); assay: Mixed meal tolerance test (MMTT) in postbariatric hypoglycemia (PBH) rat model induced by vertical sleeve gastrectomy (VSG); assay type: in vivo; conditions: MMTT 4 hours after 3720 µg/kg (1070.5 nmol/kg) subcutaneous, versus excipient, FIG. 2
Procedure: A PBH rat model was established by performing sham operations or VSG surgery on SD rats. The rats were fed a high-fat diet (HFD) for 19 weeks, and divided randomly into two groups with 10 animals each (an excipient control group and a GLP-1R antagonist analog conjugate administered group). […] As for the MMTT, all the groups were orally administered 2 mL of a mixed meal (Ensure Plus®, Abbott, USA) once after 5-hour fasting, and then blood samples were consecutively collected at specific time intervals (0, 15, 30, 45, 60, and 120 minutes) to measure blood glucose levels (GDoctor, Allmedicus Co., Korea). Statistical analysis was performed using the one-way ANOVA to compare between the VSG rat excipient group (control group) and the test groups (* ~ ***p < 0.05 ~ 0.001). Particularly, the dose was expressed as a value based on the value obtained by subtracting the mass of the fatty acid moieties from the total mass of the acylated GLP-1 receptor antagonist analog conjugate, that is, the value obtained by summing the masses of each of only polypeptide moieties.
Additionally, 15 minutes after the MMTT test, plasma was isolated from blood samples, and the insulin secretion level was measured using a rat insulin ELISA kit ([…], Merck Millipore, USA).

human GLP-1R (hGLP-1R) = human GLP-1R (hGLP-1R) (Homo sapiens, UniProt P43220); assay: In vitro cell activity: cAMP inhibition (LANCE Ultra cAMP kit) in CHO cells expressing human GLP-1R, with GLP-1 added; assay type: cell-based; conditions: relative activity from IC50 of cAMP inhibition; 0.1 nM GLP-1 added; comparative substance exendin-3 (9-39) amide = 100
Procedure: The human GLP-1R-expressed CHO cells were cultured in a 384-well plate for 24 hours. Thereafter, the culture was removed, and 10 µL of each serially diluted substance was added to the plate, followed by incubation at room temperature for 30 minutes. Then, 5 µL of Eu-cAMP tracer was added, and then 5 µL of a buffer containing cAMP antibodies was added, followed by incubation at room temperature for 60 minutes. […]

human GLP-1R (hGLP-1R), sequence (P43220 24-463): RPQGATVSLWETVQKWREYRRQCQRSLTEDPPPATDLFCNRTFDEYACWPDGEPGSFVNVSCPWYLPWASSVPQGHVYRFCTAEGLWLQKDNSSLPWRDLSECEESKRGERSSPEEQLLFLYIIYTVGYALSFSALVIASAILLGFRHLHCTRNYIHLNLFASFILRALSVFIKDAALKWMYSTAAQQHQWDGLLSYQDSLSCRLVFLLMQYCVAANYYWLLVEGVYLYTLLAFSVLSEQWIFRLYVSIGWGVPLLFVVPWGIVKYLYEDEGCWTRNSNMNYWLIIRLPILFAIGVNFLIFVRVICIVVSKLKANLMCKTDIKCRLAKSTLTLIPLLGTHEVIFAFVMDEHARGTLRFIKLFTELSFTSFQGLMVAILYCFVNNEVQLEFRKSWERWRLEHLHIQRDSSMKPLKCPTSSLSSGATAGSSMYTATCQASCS

| Molecule | blood glucose levels (C57BL/6N mice) | blood glucose levels [1] | In vitro activity compared with comparative substance (%) (human GLP-1R (hGLP-1R)) |
| --- | --- | --- | --- |
| DLSSYLEEEAVRLFIEWLKNGGPSSGAPPPSK(2) [SEQ ID NO: 17] | increased the blood glucose levels in vivo compared with the control group at all the doses | significantly increased blood glucose levels in vivo compared with PBH rats administered the excipient | – |
| CC[C@H](C)[C@H](NC(=O)[C@H](Cc1ccccc1)NC(=O)[C@H](CC(C)C)NC(=O)[C@H](CCCNC(=N)N)NC(=O)[C@H](C)NC(=O)[C@H](C)NC(=O)[C@H](CCC(=O)O)NC(=O)[C@H](CCC(=O)O)NC(=O)[C@H](CCC(=O)O)NC(=O)[C@H](CC(C)C)NC(=O)[C@H](Cc1ccc(O)cc1)NC(=O)[C@H](CO)NC(=O)[C@H](CO)NC(=O)[C@H](CC(C)C)NC(=O)[C@H](CC(=O)O)NC(C)=O)C(=O)N[C@@H](CCC(=O)O)C(=O)N[C@@H](Cc1c[nH]c2ccccc12)C(=O)N[C@@H](CC(C)C)C(=O)N[C@@H](CCCCNC(=O)COCCOCCNC(=O)COCCOCCNC(=O)CC[C@H](NC(=O)CCCCCCCCCCCCCCCCC(=O)O)C(=O)O)C(=O)N[C@@H](CC(N)=O)C(=O)NCC(=O)NCC(=O)N1CCC[C@H]1C(=O)N[C@@H](CO)C(=O)N[C@@H](CO)C(=O)NCC(=O)N[C@@H](C)C(=O)N1CCC[C@H]1C(=O)N1CCC[C@H]1C(=O)N1CCC[C@H]1C(=O)N[C@@H](CO)C(N)=O [SEQ ID NO: 14] | – | – | 1.7 |
| CC[C@H](C)[C@H](NC(=O)[C@H](Cc1ccccc1)NC(=O)[C@H](CC(C)C)NC(=O)[C@H](CCCNC(=N)N)NC(=O)[C@@H](NC(=O)[C@H](C)NC(=O)[C@H](CCC(=O)O)NC(=O)[C@H](CCC(=O)O)NC(=O)[C@H](CCC(=O)O)NC(=O)[C@H](CC(C)C)NC(=O)[C@H](Cc1ccc(O)cc1)NC(=O)[C@H](CO)NC(=O)[C@H](CO)NC(=O)[C@@H](NC(=O)[C@H](CC(=O)O)NC(C)=O)C(C)C)C(C)C)C(=O)N[C@@H](C)C(=O)N[C@@H](Cc1c[nH]c2ccccc12)C(=O)N[C@@H](CC(C)C)C(=O)N[C@H](C(=O)N[C@@H](CCCCN)C(=O)NCC(=O)NCC(=O)N1CCC[C@H]1C(=O)N[C@@H](CO)C(=O)N[C@@H](CO)C(=O)NCC(=O)N[C@@H](C)C(=O)N1CCC[C@H]1C(=O)N1CCC[C@H]1C(=O)N1CCC[C@H]1C(=O)N[C@@H](CO)C(=O)N[C@@H](CCCCNC(=O)COCCOCCNC(=O)COCCOCCNC(=O)CC[C@H](NC(=O)CCCCCCCCCCCCCCCCC(=O)O)C(=O)O)C(N)=O)C(C)C [SEQ ID NO: 18] (Ac-DVSSYLEEEAVRLFIAWLVKGGPSSGAPPPSK([AEEA-AEEA-γGlu-C18 diacid])-NH2) | – | – | 19.8 |
| CC[C@H](C)[C@H](NC(=O)[C@H](Cc1ccccc1)NC(=O)[C@H](CCC(=O)O)NC(=O)[C@H](CCCNC(=N)N)NC(=O)[C@@H](NC(=O)[C@H](C)NC(=O)[C@H](CCC(N)=O)NC(=O)[C@H](CCC(=O)O)NC(=O)[C@H](CCC(=O)O)NC(=O)[C@H](CC(C)C)NC(=O)[C@H](Cc1ccc(O)cc1)NC(=O)[C@H](CO)NC(=O)[C@H](CO)NC(=O)[C@@H](NC(=O)[C@H](CC(=O)O)NC(C)=O)C(C)C)C(C)C)C(=O)N[C@@H](C)C(=O)N[C@@H](Cc1c[nH]c2ccccc12)C(=O)N[C@@H](CC(C)C)C(=O)N[C@H](C(=O)N[C@@H](CCCCN)C(=O)NCC(=O)NCC(=O)N1CCC[C@H]1C(=O)N[C@@H](CO)C(=O)N[C@@H](CO)C(=O)NCC(=O)N[C@@H](C)C(=O)N1CCC[C@H]1C(=O)N1CCC[C@H]1C(=O)N1CCC[C@H]1C(=O)N[C@@H](CO)C(N)=O)C(C)C [SEQ ID NO: 9] (Ac-DVSSYLEEQAVREFIAWLVKGGPSSGAPPPS-NH2) | – | – | 188.6 |
| CC[C@H](C)[C@H](NC(=O)[C@H](Cc1ccccc1)NC(=O)[C@H](CC(C)C)NC(=O)[C@H](CCCNC(=N)N)NC(=O)[C@@H](NC(=O)[C@H](C)NC(=O)[C@H](CCC(=O)O)NC(=O)[C@H](CCC(=O)O)NC(=O)[C@H](CCC(=O)O)NC(=O)[C@H](CC(C)C)NC(=O)[C@H](Cc1ccc(O)cc1)NC(=O)[C@H](CO)NC(=O)[C@H](CO)NC(=O)[C@@H](NC(=O)[C@H](CC(=O)O)NC(=O)[C@H](CO)NC(=O)[C@@H](NC(C)=O)[C@@H](C)O)C(C)C)C(C)C)C(=O)N[C@@H](C)C(=O)N[C@@H](Cc1c[nH]c2ccccc12)C(=O)N[C@@H](CC(C)C)C(=O)N[C@H](C(=O)N[C@@H](CCCCN)C(=O)NCC(=O)NCC(=O)N1CCC[C@H]1C(=O)N[C@@H](CO)C(=O)N[C@@H](CO)C(=O)NCC(=O)N[C@@H](C)C(=O)N1CCC[C@H]1C(=O)N1CCC[C@H]1C(=O)N1CCC[C@H]1C(=O)N[C@@H](CO)C(N)=O)C(C)C [SEQ ID NO: 7] (Ac-TSDVSSYLEEEAVRLFIAWLVKGGPSSGAPPPS-NH2) | – | – | 195.5 |
| CC[C@H](C)[C@H](NC(=O)[C@H](Cc1ccccc1)NC(=O)[C@H](CC(C)C)NC(=O)[C@H](CCCNC(=N)N)NC(=O)[C@H](C)NC(=O)[C@H](C)NC(=O)[C@H](CCC(=O)O)NC(=O)[C@H](CCC(=O)O)NC(=O)[C@H](CCC(=O)O)NC(=O)[C@H](CC(C)C)NC(=O)[C@H](Cc1ccc(O)cc1)NC(=O)[C@H](CO)NC(=O)[C@H](CO)NC(=O)[C@@H](NC(=O)[C@H](CC(=O)O)NC(C)=O)C(C)C)C(=O)N[C@@H](C)C(=O)N[C@@H](Cc1c[nH]c2ccccc12)C(=O)N[C@@H](CC(C)C)C(=O)N[C@H](C(=O)N[C@@H](CCCCNC(=O)COCCOCCNC(=O)COCCOCCNC(=O)CC[C@H](NC(=O)CCCCCCCCCCCCCCCCC(=O)O)C(=O)O)C(=O)NCC(=O)NCC(=O)N1CCC[C@H]1C(=O)N[C@@H](CO)C(=O)N[C@@H](CO)C(=O)NCC(=O)N[C@@H](C)C(=O)N1CCC[C@H]1C(=O)N1CCC[C@H]1C(=O)N1CCC[C@H]1C(=O)N[C@@H](CO)C(N)=O)C(C)C [SEQ ID NO: 16] | – | – | 13.5 |
